Consider 8 compounds from PubChem BioAssay (NCI).

Holding throughout (assay): NCI tumour cell line growth inhibition, 48 h
Experiment [1] relates to OVCAR-8 ovarian.
For experiment [2], the system named is LOX IMVI melanoma.
The subject of experiment [3] is IGROV1 ovarian.
The test system of experiment [4] is RXF 393 renal.
Experiment [5] concerns DU-145 prostate.
Experiment [6] deals with HOP-92 NSCLC.
In experiment [7] the test system is SNB-19 CNS.
Experiment [8] relates to A498 renal.
Experiment [9] deals with UACC-62 melanoma.
Experiment [10] deals with RPMI-8226 leukemia.

The structures appear in SMILES notation.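 Test compounds were applied to cells in 96-well plates for 48 hours at 5 doses. GI50: concentration for 50% inhibition of growth. At the TGI there is no net growth.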

In the case of `O=C(Nc1ccc(-c2ccnc(Nc3ccc(N4CCOCC4)cc3)n2)cc1)C1CCCN1` (centres undefined), the GI50 was 5.09 µM in [1]; 2.27 µM in experiment [2]; 5.16 µM in experiment [3]; 2.23 µM in [4]; 7.14 µM in experiment [5]; 4.1 µM in experiment [6]. Further, the GI50 in experiment [7] was 18 µM; in [8], 6.4 µM; in experiment [9], 6.63 µM; in experiment [10], 4.61 µM. Besides, the TGI in experiment [1] was 28.3 µM; in experiment [2], 13.9 µM; in [3], 25.8 µM; in experiment [4], 9.36 µM; in [5] it was 37.4 µM; in experiment [6] it was 24.4 µM. Besides, the TGI is 64.7 µM in experiment [7], 17.9 µM in experiment [8], 20.8 µM in [9] and 24.7 µM in experiment [10].

For the compound `O=C1NC(O)CCN1C1CC(O)C(CO)O1` (centres undefined), the TGI in experiment [1], in [2], in experiment [3], in [4], in experiment [5] and in [6] was over 100 µM throughout. Moreover, the TGI in [7], in experiment [8], in experiment [9] and in [10] was over 100 µM each time.

For the compound `CN(C)CCNc1c2c(c(NCCN(C)C)c3c(CO)c[nH]c13)C(=O)c1ccccc1C2=O`, the GI50 in experiment [1] is 8.53 µM; in experiment [2], 1.97 µM; in [3], 2.49 µM; in experiment [4], 3.83 µM; in [5], 2.17 µM; in experiment [6], 2.89 µM. Besides, the GI50 in [7] was 6.09 µM; in experiment [8], 18.1 µM; in experiment [9] it was 7.64 µM; in experiment [10], 2.17 µM. Further, the TGI in [1] was over 39.4 µM; in experiment [2] it was 10 µM; in experiment [3] it was over 40.7 µM; in experiment [4], 12.5 µM; in experiment [5], 12.7 µM; in [6] it was 13.1 µM. Moreover, the TGI in [7] came out at 22.3 µM; in [8], 34.7 µM; in [9], 21.7 µM; in experiment [10] it was 12.8 µM.

As to `Cc1cc(Cl)ccc1NC(=O)NC(C)(C)COC(=O)Nc1cccc(Cl)c1`, the GI50 in experiment [1] was 5.42 µM; in experiment [3] it was 11.1 µM; in experiment [4], 17.5 µM; in [5], 11.2 µM; in experiment [6], 3.48 µM; in experiment [7], 5.57 µM. Besides, the GI50 in [8] is 2.82 µM; in experiment [9], 4.73 µM; in experiment [10] it was 3.26 µM. The TGI in [1] was 64.8 µM; in experiment [3] it was over 100 µM; in experiment [4] it was 78.6 µM; in [5], over 100 µM; in experiment [6], 26.4 µM; in experiment [7], over 100 µM. The TGI was 21.8 µM in experiment [8], over 100 µM in [9] and 15.3 µM in [10].

Regarding `CC(C)(O)CCC(O)C(C)(O)C1CCC2(O)C3=CC(=O)C4(O)CC(O)C(O)CC4(C)C3CCC12C` (centres undefined) (tested in a mixture with another compound), the TGI in experiment [1], in experiment [2], in experiment [3], in [4], in experiment [5] and in experiment [6] was over 100 µM each time. The TGI in experiment [7], in [8] and in experiment [9] was over 100 µM in each case.

As for `C=C1C(=O)O[C@H]2[C@H]1CC/C(COC(=O)/C=C/c1c[nH]c3ccccc13)=C\CC[C@@]1(C)O[C@@H]21`, the GI50 in [1] was 0.191 µM; in [3], 0.225 µM; in [4], 0.172 µM; in [5] it was 0.393 µM; in experiment [6], 0.156 µM; in experiment [8], 0.278 µM. For the same compound, the GI50 was 0.177 µM in [9] and 0.0332 µM in experiment [10]. Moreover, the TGI was determined as 0.421 µM in experiment [1]; 0.484 µM in [3]; 0.331 µM in experiment [4]; 1.43 µM in [5]; 0.369 µM in experiment [6]; 1.13 µM in experiment [8]. Also, the TGI came out at 0.379 µM in experiment [9] and 0.123 µM in experiment [10].

Regarding `CCC1OC(/C(C)=C/C(C)/C=C/C2C(C)C2/C=C/C2OC(CC(=O)O)CC(O)C2O)CC=C1C` (centres undefined), the GI50 in experiment [1], in experiment [2], in experiment [3], in experiment [4], in experiment [5] and in experiment [7] was over 50 µM throughout. Further, the GI50 in [8], in [9] and in [10] was over 50 µM in each case. The TGI in experiment [1], in experiment [2], in experiment [3], in experiment [4], in experiment [5] and in experiment [7] was over 50 µM in each case. Further, the TGI in [8], in experiment [9] and in [10] was over 50 µM throughout.

On to `C=C(C)[C@@H]1CC[C@]2(C)[C@H](CC=C3[C@@H]4[C@H](C)[C@@H](C)CC[C@]4(CO)CC[C@]32C)[C@@]1(C)CCCN`, for which the GI50 is 1.16 µM in experiment [1]; 0.859 µM in experiment [2]; 0.885 µM in [3]; 0.826 µM in experiment [4]; 1.21 µM in experiment [5]; 1.04 µM in [6]. In addition, the GI50 is 2.11 µM in [7], 3.83 µM in experiment [8] and 5.82 µM in [9]. The TGI in [1] came to 2.8 µM; in experiment [2] it was 1.57 µM; in [3] it was 1.67 µM; in [4], 1.59 µM; in experiment [5] it was 3.01 µM; in experiment [6] it was 3.46 µM. In addition, the TGI came out at 8.11 µM in experiment [7], 11.2 µM in experiment [8] and 12.6 µM in experiment [9].
